Data published in patent US20040086901A1, “Database for analyzing gene function and method of analyzing gene function by dspa” (priority 2000, published 2004).

Columns and labels:
Format in all cases: cell-based, mouse
[1] = tested on: NIH3T3 cells overexpressing Ha-ras; assay: MTT cell viability, drug sensitivity of Ha-ras overexpressing cells vs parental line; settings: Ha-ras high-expressing cells / parental cell line, 3 to 4 days
Method: (§1) With regard to the function-known genes, the genes shown in the left column of Table 2 were used. With regard to the drugs, those shown in Table 1 were dissolved in DMSO to an extent of 100-fold of the maximum concentration for the search of the drugs and used. With regard to the cells, incubated NIH3T3 or ras-NIH3T3 cells were used.
(§2) Full-length cDNA of each function-known genes was incorporated into an expression vector (pRc-CMV, etc.) and transfected into NIH3T3 cells by a common method. Transformed cells were isolated using the resistance to G-418 as an index and the expression of the transfected gene in each cell was investigated by Western blotting method to select a highly expressing line.
(§3) Cell viabilities were measured according to the following procedures.
(§4) 1) From the 2nd to the 11th rows of a 96-well plate were filled with DMEM (50 μl). The 12th row was filled with 100 μl of DMEM.
(§5) 2) The 1st row was filled with 98 μl of DMEM.
(§6) 3) Drugs (2 μl each) were added into the 1st row.
(§7) 4) Continuous double-dilution was conducted from the 1st to the 9th rows. Fifty μl were taken out from the 9th row and discarded. The plate was preserved in a CO2 incubator.
(§8) 5) Cells (each high-expressing cells and the parental cell line) were detached from the medium using a trypsin solution, suspended in 10% CS-DMEM and transferred to a test tube and cell numbers (cell/ml) were counted.
(§9) 6) The cells were diluted to a concentration of 1×10^5 cells/ml, and 50 μl of the cell suspension were added to the 1st to the 11th rows of the plate followed by gently stirring.
(§10) 7) The plate was transferred to the CO2 incubator and incubated for 3 to 4 days.
(§11) 8) MTT (5 mg/ml in PBS) (10 μl) was added to the 1st to the 12th rows of the plate and incubated in the CO2 incubator at 37° C. for 4 hours.
(§12) 9) A reaction stop solution (0.04N HCl in isopropanol) (150 μl) was added followed by mixing well and being allowed to stand at room temperature for about 2 hours.
(§13) 10) Coloration of formazan which was a metabolite of the MTT dye was measured using a microplate reader. The measurement wavelength was 574 nm and the reference wavelength was 655 nm. The 10th and the 11th rows of the plate were 100% controls and the 12th row was a 0% control.
(§14) As an index for the sensitivity of highly gene-expressing cells and the parental cell line to various drugs, each of the IC40 values thereof was specified and ratios of the IC40 values were calculated. […] After that, logarithmic values of ratios of IC40 values were calculated from each gene.

[2] = tested on: NIH3T3 cells overexpressing v-src; assay: MTT cell viability, v-src overexpressing cells vs parental line; settings: v-src high-expressing cells / parental cell line, 3 to 4 days
Method: as §1, §2, §3, §4, §5, §6, §7, §8, §9, §10, §11, §12, §13
(§15) As an index for the sensitivity of highly gene-expressing cells and the parental cell line to various drugs, each of the IC40 values thereof was specified and ratios of the IC40 values were calculated. FIG. 2 and FIG. 3 are the examples where ratios of IC40 values were calculated from a curve showing the dependency on the concentration of the chemical versus the viability. After that, logarithmic values of ratios of IC40 values were calculated from each gene.

[3] = tested on: NIH3T3 cells overexpressing p16/INK4A; assay: MTT cell viability, p16/INK4A overexpressing cells vs parental line; settings: p16/INK4A high-expressing cells / parental cell line, 3 to 4 days
Method: as §1, §2, §3, §4, §5, §6, §7, §8, §9, §10, §11, §12, §13, §15

[4] = tested on: NIH3T3 cells overexpressing Bax; assay: MTT cell viability, Bax overexpressing cells vs parental line; settings: 3 to 4 days
Method: as §1, §2, §3, §4, §5, §6, §7, §8, §9, §10, §11, §12, §13, §14

[5] = tested on: NIH3T3 cells overexpressing TK; assay: MTT cell viability, TK overexpressing cells vs parental line; settings: TK high-expressing cells / parental cell line, 3 to 4 days
Method: as §1, §2, §3, §4, §5, §6, §7, §8, §9, §10, §11, §12, §13, §15

[6] = tested on: NIH3T3 cells overexpressing DAN; assay: MTT cell viability, DAN overexpressing cells vs parental line; settings: DAN high-expressing cells / parental cell line, 3 to 4 days
Method: as §1, §2, §3, §4, §5, §6, §7, §8, §9, §10, §11, §12, §13, §15

[7] = tested on: NIH3T3 cells overexpressing Regucalcin; assay: MTT cell viability, Regucalcin overexpressing cells vs parental line; settings: Regucalcin high-expressing cells / parental cell line, 3 to 4 days
Method: as §1, §2, §3, §4, §5, §6, §7, §8, §9, §10, §11, §12, §13, §15

[8] = tested on: NIH3T3 cells overexpressing cystatin E; assay: MTT cell viability, cystatin E overexpressing cells vs parental line; settings: cystatin E high-expressing cells / parental cell line, 3 to 4 days
Method: as §1, §2, §3, §4, §5, §6, §7, §8, §9, §10, §11, §12, §13, §15

[9] = tested on: NIH3T3 cells overexpressing caspase-3; assay: MTT cell viability, caspase-3 overexpressing cells vs parental line; settings: caspase-3 high-expressing cells / parental cell line, 3 to 4 days
Method: as §1, §2, §3, §4, §5, §6, §7, §8, §9, §10, §11, §12, §13, §14

[10] = tested on: NIH3T3 cells overexpressing RhoA; assay: MTT cell viability, RhoA overexpressing cells vs parental line; settings: RhoA high-expressing cells / parental cell line, 3 to 4 days
Method: as §1, §2, §3, §4, §5, §6, §7, §8, §9, §10, §11, §12, §13, §15

[11] = tested on: NIH3T3 cells overexpressing PDGF-R-Del; assay: MTT cell viability, PDGF-R-Del overexpressing cells vs parental line; settings: PDGF-R-Del high-expressing cells / parental cell line, 3 to 4 days
Method: as §1, §2, §3, §4, §5, §6, §7, §8, §9, §10, §11, §12, §13, §15

[12] = tested on: NIH3T3 cells overexpressing PKCalpha-KN; assay: MTT cell viability, PKCalpha-KN overexpressing cells vs parental line; settings: 3 to 4 days
Method: as §1, §2, §3, §4, §5, §6, §7, §8, §9, §10, §11, §12, §13, §14

[13] = tested on: NIH3T3 cells overexpressing PKCepsilon-KN; assay: MTT cell viability, PKCepsilon-KN overexpressing cells vs parental line; settings: 3 to 4 days
Method: as §1, §2, §3, §4, §5, §6, §7, §8, §9, §10, §11, §12, §13, §14

[14] = tested on: NIH3T3 cells, TPA (PKC downreg); assay: MTT cell viability, TPA (PKC downreg) cells vs parental line; settings: 3 to 4 days
Method: as §1, §2, §3, §4, §5, §6, §7, §8, §9, §10, §11, §12, §13, §15

[15] = tested on: NIH3T3 cells overexpressing p38-DN; assay: MTT cell viability, p38-DN overexpressing cells vs parental line; settings: p38-DN high-expressing cells / parental cell line, 3 to 4 days
Method: as §1, §2, §3, §4, §5, §6, §7, §8, §9, §10, §11, §12, §13, §14

[16] = tested on: NIH3T3 cells overexpressing HSP4O; assay: MTT cell viability, HSP4O overexpressing cells vs parental line; settings: HSP4O high-expressing cells / parental cell line, 3 to 4 days
Method: as §1, §2, §3, §4, §5, §6, §7, §8, §9, §10, §11, §12, §13, §15

[17] = tested on: NIH3T3 cells overexpressing CaMKIIa; assay: MTT cell viability, CaMKIIa overexpressing cells vs parental line; settings: CaMKIIa high-expressing cells / parental cell line, 3 to 4 days
Method: as §1, §2, §3, §4, §5, §6, §7, §8, §9, §10, §11, §12, §13, §14

[18] = tested on: NIH3T3 cells overexpressing HNF1; assay: MTT cell viability, HNF1 overexpressing cells vs parental line; settings: HNF1 high-expressing cells / parental cell line, 3 to 4 days
Method: as §1, §2, §3, §4, §5, §6, §7, §8, §9, §10, §11, §12, §13, §14

[19] = tested on: NIH3T3 cells overexpressing HNF4; assay: MTT cell viability, HNF4 overexpressing cells vs parental line; settings: HNF4 high-expressing cells / parental cell line, 3 to 4 days
Method: as §1, §2, §3, §4, §5, §6, §7, §8, §9, §10, §11, §12, §13, §14

[20] = Bax (first of two Bax lines) high-expressing cells / parental cell line
[21] = Bax (second of two Bax lines) high-expressing cells / parental cell line
[22] = PKCalpha-KN (first of two lines) high-expressing cells / parental cell line
[23] = PKCalpha-KN (second of two lines) high-expressing cells / parental cell line
[24] = PKCepsilon-KN (first of two lines) high-expressing cells / parental cell line
[25] = PKCepsilon-KN (second of two lines) high-expressing cells / parental cell line

Row | Molecule | logarithmic value of ratio of IC40 values [1] | logarithmic value of ratio of IC40 values [2] | logarithmic value of ratio of IC40 values [3] | logarithmic value of ratio of IC40 values [4, 20] | logarithmic value of ratio of IC40 values [5] | logarithmic value of ratio of IC40 values [6] | logarithmic value of ratio of IC40 values [7] | logarithmic value of ratio of IC40 values [8] | logarithmic value of ratio of IC40 values [9] | logarithmic value of ratio of IC40 values [10] | logarithmic value of ratio of IC40 values [11] | logarithmic value of ratio of IC40 values [12, 22] | logarithmic value of ratio of IC40 values [12, 23] | logarithmic value of ratio of IC40 values [13, 24] | logarithmic value of ratio of IC40 values [14] | logarithmic value of ratio of IC40 values [15] | logarithmic value of ratio of IC40 values [16] | logarithmic value of ratio of IC40 values [17] | logarithmic value of ratio of IC40 values [18] | logarithmic value of ratio of IC40 values [19] | further results
1 | sodium vanadate | −0.33 | 0.00 | 0.11 | 0.00 | 0.16 | 0.30 | 0.00 | 0.20 | 0.14 | 0.28 | 0.00 | 0.23 | 0.08 | 0.09 | −0.03 | −0.04 | −0.03 | −0.13 | 0.046 | −0.03 | logarithmic value of ratio of IC40 values [4, 21]: 0.32; logarithmic value of ratio of IC40 values [13, 25]: 0.18
2 | C/C=C(/C)C(=O)O[C@H]1C(C)=C2[C@H]([C@@H]1OC(=O)CCCCCCC)[C@@](C)(OC(C)=O)C[C@H](OC(=O)CCC)[C@@]1(O)[C@H]2OC(=O)[C@@]1(C)O [Thapsigargin, thapsigargin] | 0.00 | 0.32 | −0.64 | −0.21 | 0.06 | 0.18 | 0.20 | 0.00 | −0.17 | 0.26 | 0.24 | 0.10 | 0.12 | 0.09 | −0.23 | 0.02 | 0.18 | 0.09 | 0.16 | 0.00 | logarithmic value of ratio of IC40 values [4, 21]: 0.20; logarithmic value of ratio of IC40 values [13, 25]: 0.20
3 | CN[C@@H]1C[C@H]2O[C@@](C)([C@@H]1OC)n1c3ccccc3c3c4c(c5c6ccccc6n2c5c31)C(=O)NC4 [Staurosporine] | 0.30 | −0.05 | −0.22 | −0.22 | 0.46 | 0.48 | −0.09 | 0.40 |  | 0.15 | 0.28 |  |  |  | −0.12 | −0.05 | 0.30 | 0.12 |  | 0.04 | 
4 | Nc1nc2nc[nH]c2c(=S)[nH]1 [6-TG, 6-thioguanine] | −0.19 | 0.00 | 0.46 | 0.36 | −0.17 | 0.64 | 0.20 | 0.00 | 1.16 | 0.69 | 0.51 | 0.26 | 0.38 | 0.00 | 0.00 |  | 0.50 | 0.00 | 0.46 | 0.00 | logarithmic value of ratio of IC40 values [4, 21]: −0.05; logarithmic value of ratio of IC40 values [13, 25]: 0.00
5 | CC(C)(C)C(=O)Oc1ccc(S(=O)(=O)Nc2ccccc2C(=O)NCC(=O)O)cc1 [compound 5046] |  | 0.51 | 0.22 | −0.07 | −0.24 | 0.26 | −0.38 | 0.36 | 0.40 | 0.11 | −0.07 | 0.10 | −0.05 | −0.21 | −0.10 | −0.04 | −0.15 |  | 0.05 |  | 
